According to patent US4254285A, “1-Hydroxymethyl-1-1-oxo prostane derivatives of the E and F series” (American Cyanamid Company, priority 1979, dated 1981):
Like-named read-outs stand apart in the source and are kept apart here.

How the values were obtained:
[1] = tested on: indomethacin-induced gastric ulcers; type: in vivo, rat
Experimental: (§1) Male Wistar rats (Royal Hart, New Hampton, N.Y.), weighing 190-210 g are distributed among control and treatment groups (5 rats/group) and housed one rat per cage. During the 52 hour test period, the rats are permitted free access to food and drinking water for the first 33 hours but are fasted overnight prior to sacrifice. Indomethacin is suspended (4 mg/ml) in a 1.5% starch-phosphate buffer solution (SPBS). 1,9-dioxo-11α,16-dihydroxy-16-methyl-1-hydroxymethyl-13-transprostene is dissolved at 10 mg/ml in ethanol and then diluted in SPBS to 0.1 mg/ml or to a lower concentration as required. The indomethacin suspension is injected subcutaneously (10 mg/kg) and the prostaglandin suspension is given by gavage (0.5 mg/kg or less) b.i.d. on day 0 and 1. Rats receive only one dose of prostaglandin and indomethacin on day 2 and 6 hours later are killed with chloroform. The stomachs are dissected, opened along the greater curvature, and rinsed briefly in tap water. They are then spread, mucosal surface facing upward and pinned onto uniform size corks (2.5 inch diameter) individually numbered on the back. The identification number for each stomach is unknown to the investigator and the stomachs are randomly graded according to the following scheme:
1--Petechial hemorrhage, or pin-point ulcers
2--One or two small ulcers or hemorrhagic erosions
3--Many areas of hemorrhage erosion or ulcers, a few large
4--Massive areas of hemorrhagic erosion or many ulcers, mainly large
(§2) ^a Treatment is B.I.D. on days 0 and 1, and once on day 2, six hours
(§3) prior to sacrifice for scoring.

[2] = tested on: indomethacin-induced intestinal ulcers; type: in vivo, rat
Experimental: as §1
Intestines are also removed and examined for the presence of ulcers, which are graded according to the scheme outlined below.
1--Mucosa thin, petechial hemorrhage
2--"Blow-outs", when intestine inflated with air
3--Few ulcers. Gut more fragile than normal, tears along line of mesentery attachements when removed
4--Many large perforating lesions. Adhesions. Gut hemorrhagic and very fragile. Tears readily and cannot be removed intact. Graded in situ.
as §2, §3

[3] = type: in vivo, rat
Experimental: as §1, §2, §3

gastric secretion = experiment: Gastric anti-secretory test, Heidenhain pouch, histamine-stimulated; type: in vivo, dog; settings: oral 100 mg/Kg
Experimental: Unanesthetized mongrel dogs weighing 10-15 Kg are used. The animals have a surgically prepared denervated (Heidenhain) pouch which drains by gravity through a titanium cannula. These animals are trained to stand quietly in a Pavlov support. Gastric secretion is stimulated at the lowest rate giving stable secretion (25-40% of maximal) with histamine acid phosphate, 30-50 μg/Kg/hr. Under such stimulation, a stable gastric secretory output can generally be maintained for a period of at least 3 hours.
Gastric juice is collected continuously during secretory studies and pooled into 15-minute collections. Determination of collection volume, pH and titratable acidity is performed. Acid is determined by titrating an aliquot of gastric sample with 0.1 N NaOH to pH 7.0 using an automatic titrator.
Drugs are administered on a background of submaximal gastric secretory stimulation and the results compared with control secretory studies without the use of drug. Depending upon the duration of action of a particular drug, it may be possible for a single drug-secretory study to serve as its own control. The route of drug administration is oral administration into the main stomach.
For example, one of the PGE compounds of this invention 1,9-dioxo-11α,16-dihydroxy-16-methyl-1-hydroxymethyl-5-trans prostadiene on administration into the stomach of one of these dogs at a dose of […] gives the results shown hereinbelow in Table D. The data in Table D is the average of four tests in one dog.

[4] = .02 mg/kg P.O. with indomethacin 10 mg/kg subcut.
[5] = .1 mg/kg P.O. with indomethacin 10 mg/kg subcut.
[6] = .5 mg/kg P.O. with indomethacin 10 mg/kg subcut.
[7] = 0 min., average of four tests in one dog

With CCCCC(C)(O)CC=CC1C(O)CC(=O)C1CCCCCCC(=O)CO (stereo not drawn) the “Gastric Ulcer Score (Mean ± S.E.M.)” value [1, 4] was 1.9 ± 0.4, the “Gastric Ulcer Score (Mean ± S.E.M.)” value [1, 5] was 1.7 ± 0.3 and the “Gastric Ulcer Score (Mean ± S.E.M.)” value [1, 6] was 2.1 ± 0.4. The “Intestinal Ulcer Score (Mean ± S.E.M.)” value [2, 4] was 3.5 ± 0.2, the “Intestinal Ulcer Score (Mean ± S.E.M.)” value [2, 5] was 2.7 ± 0.2 and the “Intestinal Ulcer Score (Mean ± S.E.M.)” value [2, 6] was 2.0 ± 0.4. For the same compound, the “Hematocrit (Mean ± S.E.M.)” value [3, 4] was 35.6 ± 1.9, the “Hematocrit (Mean ± S.E.M.)” value [3, 5] was 41.1 ± 2.4 and the “Hematocrit (Mean ± S.E.M.)” value [3, 6] was 40.0 ± 1.4.

For CCCCC(C)(O)CC=CC1C(O)CC(=O)C1CC=CCCCC(=O)CO (stereo not drawn) [1,9-dioxo-11α,16-dihydroxy-16-methyl-1-hydroxymethyl-5-cis-13-trans-prostadiene], the Acid (gastric secretion; [7]) was 0.43 meg/15 min, the “Volume of gastric juice” value (gastric secretion; [7]) was 3.4 mL and the Acid (gastric secretion; 15 min.) was 0.35 meg/15 min. For the same compound, the “Volume of gastric juice” value (gastric secretion; 15 min.) was 2.6 mL, the Acid (gastric secretion; 30 min.) was 0.22 meg/15 min and the “Volume of gastric juice” value (gastric secretion; 30 min.) was 1.5 mL. The Acid (gastric secretion; 45 min.) was 0.20 meg/15 min, the “Volume of gastric juice” value (gastric secretion; 45 min.) was 1.3 mL and the Acid (gastric secretion; 60 min.) was 0.09 meg/15 min. For the same compound, the “Volume of gastric juice” value (gastric secretion; 60 min.) was 0.7 mL, the Acid (gastric secretion; 75 min.) was 0.13 meg/15 min and the “Volume of gastric juice” value (gastric secretion; 75 min.) was 0.9 mL. For the same compound, the Acid (gastric secretion; 90 min.) was 0.21 meg/15 min, the “Volume of gastric juice” value (gastric secretion; 90 min.) was 1.5 mL and the Acid (gastric secretion; 105 min.) was 0.27 meg/15 min. The “Volume of gastric juice” value (gastric secretion; 105 min.) was 1.9 mL, the Acid (gastric secretion; 120 min.) was 0.40 meg/15 min and the “Volume of gastric juice” value (gastric secretion; 120 min.) was 2.7 mL.
